# Measurements from US20240159750A1, “METHODS FOR DIAGNOSIS AND TREATMENT OF COVID-19” (priority 2021, published 2024).
# Tests used:
# [1] = tested on: hospitalized COVID-19 patients; conditions: interim report, WHO solidarity trial; cited from earlier work
# C2 and PC cells = assay type: cell-based, rat; conditions: serum-starved C2 cells (TYMP-overexpressing VSMC)
Compound,effect on hospitalized COVID-19 patients [1],NF-κB activation (p65 phosphorylation at T254) (C2 and PC cells)
CCN(CCO)CCCC(C)Nc1ccnc2cc(Cl)ccc12 (stereo not drawn) [hydroxychloroquine],little or no effect,
Cc1cccc(C)c1OCC(=O)N[C@@H](Cc1ccccc1)[C@@H](O)C[C@H](Cc1ccccc1)NC(=O)[C@H](C(C)C)N1CCCNC1=O [lopinavir],little or no effect,
Pam3CSK4,,dramatically increased
